According to ChEMBL document CHEMBL1158811, “Echinamines A and B, first aminated hydroxynaphthazarins from the sea urchin Scaphechinus mirabilis” (J Nat Prod, 2005):

Each compound was assayed on Radical scavenging activity (assay: Antioxidant activity assessed as DPPH radical scavenging activity).
Format: functional

EC50, 10 µM:
O=C1C(O)=C(O)C(=O)c2c(O)c(O)cc(O)c21 [SPINOCHROME D]
CCC1=C(O)C(=O)c2c(O)c(O)c(O)c(O)c2C1=O [ECHINOCHROME A]
CCc1c(O)c(O)c2c(c1O)C(=O)C(O)=C(N)C2=O [ECHINAMINE A]
CCc1c(O)c(O)c2c(c1O)C(=O)C(N)=C(O)C2=O [ECHINAMINE B]
